Experimental data from ChEMBL document CHEMBL1144216, “Suppression of cytokine production in lipopolysaccharide-stimulated mouse macrophages by novel cationic glucosamine derivative involves down-regulation of NF-kappaB and MAPK expressions” (2008).
Active and inactive are the calls of the source. The calls are words filed in the database; no cut-off is given here.

Columns and labels:
RAW264.7 [1] = test: Inhibition of LPS-stimulated TNFalpha production in mouse RAW264.7 cells treated 1 hr before LPS challenge after 24 hrs by ELISA; assay type: functional, cell-based
RAW264.7 [2] = test: Inhibition of LPS-stimulated IL1-beta production in mouse RAW264.7 cells treated 1 hr before LPS challenge after 24 hrs by ELISA; assay type: functional, cell-based
RAW264.7 [3] = test: Inhibition of LPS-stimulated PGE2 production in mouse RAW264.7 cells treated 1 hr before LPS challenge after 24 hrs by ELISA; assay type: functional, cell-based
RAW264.7 [4] = test: Inhibition of LPS-stimulated IL6 production in mouse RAW264.7 cells treated 1 hr before LPS challenge after 24 hrs by ELISA; assay type: functional, cell-based
RAW264.7 [5] = test: Inhibition of LPS-stimulated TNFalpha production in mouse RAW264.7 cells at 50 ug/ml treated 1 hr before LPS challenge after 24 hrs by ELISA; assay type: functional
RAW264.7 [6] = test: Inhibition of LPS-stimulated IL1-beta production in mouse RAW264.7 cells assessed as IL1-beta level at 50 ug/ml treated 1 hr before LPS challenge after 24 hrs by ELISA; assay type: functional
RAW264.7 [7] = test: Inhibition of LPS-stimulated IL6 production in mouse RAW264.7 cells at 50 ug/ml treated 1 hr before LPS challenge after 24 hrs by ELISA; assay type: functional, cell-based
RAW264.7 [8] = test: Inhibition of LPS-stimulated PGE2 production in mouse RAW264.7 cells at 50 ug/ml treated 1 hr before LPS challenge after 24 hrs by ELISA; assay type: functional
RAW264.7 [9] = test: Inhibition of LPS-induced NF-kappaB promoter activity in mouse RAW264.7 cells by luciferase reporter assay; assay type: functional, cell-based
RAW264.7 [10] = test: Reduction of LPS-induced NF-kappaB translocation in mouse RAW264.7 cells assessed as NF-kappaB p65 protein expression level at 40 ug/mL by Western blotting; assay type: functional, cell-based
RAW264.7 [11] = test: Effect on level of NIK in mouse RAW264.7 cells by Western blotting; assay type: functional, cell-based
RAW264.7 [12] = test: Inhibition of IKK protein expression in mouse RAW264.7 cells by Western blotting; assay type: functional, cell-based
RAW264.7 [13] = test: Increase in IkappaB protein expression in mouse RAW264.7 cells by Western blotting relative to control; assay type: functional, cell-based
RAW264.7 [14] = test: Inhibition of LPS-stimulated JNK level in mouse RAW264.7 cells by Western blotting; assay type: functional, cell-based
RAW264.7 [15] = test: Inhibition of LPS-stimulated p38MAPK expression in mouse RAW264.7 cells by Western blotting; assay type: functional, cell-based
RAW264.7 [16] = test: Inhibition of LPS-stimulated ERK expression in mouse RAW264.7 cells by Western blotting; assay type: functional, cell-based
RAW264.7 [17] = test: Inhibition of LPS-stimulated TNFalpha production in mouse RAW264.7 cells at 60 ug/mL by Western blot analysis; assay type: functional, cell-based
RAW264.7 [18] = test: Inhibition of LPS-stimulated IL1-beta production in mouse RAW264.7 cells at 60 ug/mL by Western blot analysis; assay type: functional, cell-based
RAW264.7 [19] = test: Inhibition of LPS-stimulated IL6 production in mouse RAW264.7 cells at 60 ug/mL by Western blot analysis; assay type: functional, cell-based
RAW264.7 [20] = test: Reduction of LPS-induced NF-kappaB translocation in mouse RAW264.7 cells assessed as NF-kappaB p65 protein expression level at 60 ug/mL by Western blotting; assay type: functional, cell-based

Row | SMILES | Activity (RAW264.7 [1]) | Activity (RAW264.7 [2]) | Activity (RAW264.7 [3]) | Activity (RAW264.7 [4]) | inhibition at 50 µg/mL (RAW264.7 [5]) | Activity (RAW264.7 [6]) | Activity (RAW264.7 [7]) | inhibition at 50 µg/mL (RAW264.7 [8]) | Activity (RAW264.7 [9]) | Activity (RAW264.7 [10]) | Activity (RAW264.7 [11]) | Activity (RAW264.7 [12]) | Activity (RAW264.7 [13]) | Activity (RAW264.7 [14]) | Activity (RAW264.7 [15]) | Activity (RAW264.7 [16]) | Activity (RAW264.7 [17]) | Activity (RAW264.7 [18]) | Activity (RAW264.7 [19]) | Activity (RAW264.7 [20])
1 | N[C@H]1C(O)O[C@H](CO)[C@@H](O)[C@@H]1O (stereo not given in full) | Dose-dependent effect | Dose-dependent effect | Dose-dependent effect | Dose-dependent effect |  |  |  |  |  |  |  |  |  |  |  |  |  |  |  | 
2 | C[N+](C)(C)CC(O)CN[C@@H]1[C@@H](O)[C@H](O)[C@@H](CO)O[C@H]1O.[Cl-] (stereo not given in full) |  |  |  |  | 45% | 100 pg/mL | Active | 50% | Dose-dependent effect | Active | inactive | Active | Active | Dose-dependent effect | Dose-dependent effect | inactive | Active | Active | Active | Active
